In ChEMBL document CHEMBL4376867 (J Med Chem, 2020) one finds IC50, Papp A→B and Papp B→A data, which are given here for 12 compounds.

Data set [1] concerns the target T1, Inhibitor of nuclear factor kappa-B kinase subunit epsilon (Homo sapiens, UniProt Q14164).
T1 sequence (Q14164 whole entry): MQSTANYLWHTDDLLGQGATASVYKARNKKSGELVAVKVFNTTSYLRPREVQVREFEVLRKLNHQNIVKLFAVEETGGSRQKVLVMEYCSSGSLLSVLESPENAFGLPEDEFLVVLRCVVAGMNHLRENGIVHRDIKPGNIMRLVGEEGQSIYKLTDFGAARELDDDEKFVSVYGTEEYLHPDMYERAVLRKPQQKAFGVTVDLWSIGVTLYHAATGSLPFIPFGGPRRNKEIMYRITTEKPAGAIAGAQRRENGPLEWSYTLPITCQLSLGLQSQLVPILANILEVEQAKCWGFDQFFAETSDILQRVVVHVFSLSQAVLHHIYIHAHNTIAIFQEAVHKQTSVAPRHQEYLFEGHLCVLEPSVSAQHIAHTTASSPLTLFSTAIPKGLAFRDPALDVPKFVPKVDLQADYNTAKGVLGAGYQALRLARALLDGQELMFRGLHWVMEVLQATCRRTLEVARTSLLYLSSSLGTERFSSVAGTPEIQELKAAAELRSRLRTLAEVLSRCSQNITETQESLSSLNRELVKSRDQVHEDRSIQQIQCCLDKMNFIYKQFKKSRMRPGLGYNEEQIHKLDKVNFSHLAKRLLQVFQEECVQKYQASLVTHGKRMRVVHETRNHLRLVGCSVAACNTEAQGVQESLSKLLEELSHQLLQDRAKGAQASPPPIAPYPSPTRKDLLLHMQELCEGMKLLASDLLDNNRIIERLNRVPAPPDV
The data set is described as follows: Inhibition of recombinant full length human C-terminal GST-tagged IKKepsilon expressed in baculovirus expression system using biotin-labelled Ahx-GDEDFSSFAEPG peptide as substrate preincubated with enzyme for 15 mins followed by substrate addition and further incubated for 30 mins in presence of 10 uM of ATP by TR-FRET assay. In general terms: In TR-FRET formats the signal depends on donor and acceptor labels being close together.

A further data set concerns SK-MEL-2. The experiment in a line: Antiproliferative activity against human SK-MEL-2 cells harboring NRAS/TP53 mutation assessed as reduction in cell viability after 96 hrs by CellTiter-Glo luminescence assay. Type of data set: functional, cell-based. The conditions noted are these: SK-MEL-2, 96 h. In general terms: In ATP-based viability assays light output follows the ATP content of the culture.

The next data set relates to ACHN. The data set is described as follows: Antiproliferative activity against human ACHN cells harboring CDKN2A mutation assessed as reduction in cell viability after 96 hrs by CellTiter-Glo luminescence assay. Type of data set: functional, cell-based.
The target of a further data set is CDK9/cyclin T1 (Homo sapiens, UniProt P50750). The data set is described as follows: Inhibition of recombinant full length human His-tagged CDK9/CyclinT1 expressed in baculovirus expression system using biotin-labelled Ttds-YISPLKSPYKISEG peptide as substrate preincubated with enzyme for 15 mins followed by substrate addition and further incubated for 25 mins presence of 10 uM of ATP by TR-FRET assay.

The target in data set [2] is T2, Receptor-type tyrosine-protein kinase FLT3 (Homo sapiens, UniProt P36888).
T2 sequence (P36888 whole entry): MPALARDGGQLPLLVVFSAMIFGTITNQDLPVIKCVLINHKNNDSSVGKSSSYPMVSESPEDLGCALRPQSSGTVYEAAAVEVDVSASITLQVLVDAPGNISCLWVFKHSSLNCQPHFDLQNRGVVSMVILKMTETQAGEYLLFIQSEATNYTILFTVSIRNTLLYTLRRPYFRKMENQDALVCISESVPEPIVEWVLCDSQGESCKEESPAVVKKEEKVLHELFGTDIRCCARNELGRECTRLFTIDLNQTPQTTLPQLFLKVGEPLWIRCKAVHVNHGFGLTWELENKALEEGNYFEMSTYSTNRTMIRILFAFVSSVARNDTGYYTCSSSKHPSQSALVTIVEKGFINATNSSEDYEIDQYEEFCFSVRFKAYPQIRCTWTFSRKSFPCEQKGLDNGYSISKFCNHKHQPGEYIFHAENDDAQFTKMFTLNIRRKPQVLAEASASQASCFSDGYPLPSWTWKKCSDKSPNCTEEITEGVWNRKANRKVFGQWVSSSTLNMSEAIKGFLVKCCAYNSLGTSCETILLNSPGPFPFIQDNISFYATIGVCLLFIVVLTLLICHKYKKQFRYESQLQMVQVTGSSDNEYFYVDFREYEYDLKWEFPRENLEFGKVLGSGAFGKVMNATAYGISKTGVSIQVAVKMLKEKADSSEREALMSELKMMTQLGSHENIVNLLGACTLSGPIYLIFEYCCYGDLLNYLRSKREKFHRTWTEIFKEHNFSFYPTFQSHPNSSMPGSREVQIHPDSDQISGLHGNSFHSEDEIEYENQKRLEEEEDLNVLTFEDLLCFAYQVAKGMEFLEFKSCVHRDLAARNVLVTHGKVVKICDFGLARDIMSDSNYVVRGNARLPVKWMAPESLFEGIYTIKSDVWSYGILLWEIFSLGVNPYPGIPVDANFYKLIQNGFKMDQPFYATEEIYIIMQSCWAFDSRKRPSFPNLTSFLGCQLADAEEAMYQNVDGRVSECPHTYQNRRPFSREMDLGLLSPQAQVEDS
The experiment in a line: Inhibition of recombinant human N-terminal GST-tagged FLT3 (564 to end residues) expressed in sf21 cells using biotin labelled Ahx-GGEEEEYFELVKKKK peptide as substrate preincubated with enzyme for 15 mins followed by substrate addition and further incubated for 45 mins in presence of 10 uM of ATP by TR-FRET assay.

Data set [3] deals with Ribosomal protein S6 kinase alpha-6 (Homo sapiens, UniProt Q9UK32). The experiment in a line: Inhibition of recombinant full length human His6-tagged RSK4 expressed in baculovirus infected sf21 cells using biotin labelled Ahx-KKLNRTLSFAEPG peptide as substrate preincubated with enzyme for 15 mins followed by substrate addition and further incubated for 30 mins in presence of 10 uM of ATP by TR-FRET assay.

Data set [4] in a line: Apparent permeability of compound across apical to basal membrane in human Caco2 cells at 2 uM in DMSO after 2 hrs by LC-MS/MS analysis. Type of data set: ADME, cell-based. The note with it: Caco-2. For orientation: Caco-2 cells form a polarised layer with tight junctions and transporters.
Data set [5] is described as follows: Apparent permeability of compound across basal to apical membrane in human Caco2 cells at 2 uM in DMSO after 2 hrs by LC-MS/MS analysis. Type of data set: ADME, cell-based. The note with it: Caco-2.

Chain of CDK9/cyclin T1 (O60563 whole entry): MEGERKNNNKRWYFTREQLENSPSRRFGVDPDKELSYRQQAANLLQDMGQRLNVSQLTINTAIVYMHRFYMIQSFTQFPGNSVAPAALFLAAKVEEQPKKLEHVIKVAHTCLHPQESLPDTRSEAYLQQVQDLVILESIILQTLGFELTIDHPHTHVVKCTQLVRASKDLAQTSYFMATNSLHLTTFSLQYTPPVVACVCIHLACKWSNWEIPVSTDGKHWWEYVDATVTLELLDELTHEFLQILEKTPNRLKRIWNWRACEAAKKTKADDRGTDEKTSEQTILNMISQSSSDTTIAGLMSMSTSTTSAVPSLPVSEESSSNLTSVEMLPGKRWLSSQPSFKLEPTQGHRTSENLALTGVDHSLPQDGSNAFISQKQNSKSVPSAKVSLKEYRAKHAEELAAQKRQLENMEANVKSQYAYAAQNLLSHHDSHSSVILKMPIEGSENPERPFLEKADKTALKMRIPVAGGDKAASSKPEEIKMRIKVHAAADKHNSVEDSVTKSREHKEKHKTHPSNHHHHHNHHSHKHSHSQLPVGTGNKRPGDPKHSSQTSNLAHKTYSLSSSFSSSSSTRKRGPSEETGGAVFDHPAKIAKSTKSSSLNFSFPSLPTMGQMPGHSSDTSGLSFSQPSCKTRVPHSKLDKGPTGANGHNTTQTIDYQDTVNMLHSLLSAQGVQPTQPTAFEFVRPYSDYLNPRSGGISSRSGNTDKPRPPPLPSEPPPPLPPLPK
Chain of CDK9/cyclin T1 (P50750 whole entry): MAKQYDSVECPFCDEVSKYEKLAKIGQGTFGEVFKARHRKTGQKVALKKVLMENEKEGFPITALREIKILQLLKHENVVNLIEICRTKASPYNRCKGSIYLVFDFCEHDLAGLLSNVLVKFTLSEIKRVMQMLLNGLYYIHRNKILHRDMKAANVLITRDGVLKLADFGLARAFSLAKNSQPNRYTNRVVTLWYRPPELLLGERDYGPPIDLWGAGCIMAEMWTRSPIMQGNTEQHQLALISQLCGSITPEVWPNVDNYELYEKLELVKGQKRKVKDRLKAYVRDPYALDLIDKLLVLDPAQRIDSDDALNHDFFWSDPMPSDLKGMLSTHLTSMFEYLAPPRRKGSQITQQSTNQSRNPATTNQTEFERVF
Chain of Ribosomal protein S6 kinase alpha-6 (Q9UK32 whole entry): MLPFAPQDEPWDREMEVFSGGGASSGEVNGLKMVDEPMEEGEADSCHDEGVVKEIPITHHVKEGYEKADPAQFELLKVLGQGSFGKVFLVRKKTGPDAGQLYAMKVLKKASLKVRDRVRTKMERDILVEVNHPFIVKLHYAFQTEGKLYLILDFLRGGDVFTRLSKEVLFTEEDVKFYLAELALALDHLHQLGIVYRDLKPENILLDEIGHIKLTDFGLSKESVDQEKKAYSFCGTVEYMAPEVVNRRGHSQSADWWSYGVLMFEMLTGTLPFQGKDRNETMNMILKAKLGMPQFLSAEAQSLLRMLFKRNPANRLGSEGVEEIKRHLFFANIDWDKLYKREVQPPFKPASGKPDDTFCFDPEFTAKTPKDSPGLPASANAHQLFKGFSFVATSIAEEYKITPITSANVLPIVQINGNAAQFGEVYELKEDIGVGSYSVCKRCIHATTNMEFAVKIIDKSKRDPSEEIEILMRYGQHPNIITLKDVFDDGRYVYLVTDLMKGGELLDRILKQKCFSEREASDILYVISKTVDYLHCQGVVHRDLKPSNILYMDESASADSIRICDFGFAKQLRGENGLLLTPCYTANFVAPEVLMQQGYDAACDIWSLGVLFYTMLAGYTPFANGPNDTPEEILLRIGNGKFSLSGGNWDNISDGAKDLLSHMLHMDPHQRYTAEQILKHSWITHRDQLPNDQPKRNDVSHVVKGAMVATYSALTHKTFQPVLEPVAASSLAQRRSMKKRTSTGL

What is called IC50 is the concentration that gives 50% inhibition. As a reminder, the Papp A→B is the apparent permeability from the apical to the basolateral side of a cell layer. The term Papp B→A denotes how fast a substance crosses the layer from the basolateral side. Take `COCc1cc(-c2ccc3nc(Nc4cc([C@@H](C)N5CCN(C(=O)CC(F)(F)F)CC5)ccn4)[nH]c3c2)ncn1`: the IC50 in data set [1] stood at 2 nM; in the data set on SK-MEL-2 it was 883 nM; in the data set with ACHN it was 13400 nM; at CDK9/cyclin T1, 5110 nM; in data set [2], 5 nM; in data set [3] it was 192 nM. The Papp A→B at 2 h, 2 µM in data set [4] stood at 1.4 ×10⁻⁶ cm/s. For the same compound, the Papp B→A at 2 h, 2 µM in data set [5] turned out to be 21.8 ×10⁻⁶ cm/s.

With `CC(C)Oc1cncnc1-c1ccc2nc(Nc3cc([C@@H](C)N4CCN(C(=O)CC(F)(F)F)CC4)ccn3)[nH]c2c1`, the IC50 with SK-MEL-2 stood at 3970 nM; in the data set with ACHN, 7960 nM; on CDK9/cyclin T1, 824 nM; in data set [2], 1 nM; in data set [3] it was 7 nM.

Turning to `C[C@H](c1ccnc(Nc2nc3ccc(-c4cc(N(C)C)ncn4)cc3[nH]2)c1)N1CCN(C(=O)CC(F)(F)F)CC1` [BAY-985], the IC50 is 2 nM in data set [1]; 900 nM in the data set with SK-MEL-2; 7260 nM with ACHN; 123 nM in data set [2]; 276 nM in data set [3]. Also, in data set [4], the Papp A→B at 2 h, 2 µM fell in the range of 0.89 to 0.9 ×10⁻⁶ cm/s. Moreover, the Papp B→A at 2 h, 2 µM in data set [5] was in the range of 14.6 to 14.7 ×10⁻⁶ cm/s.

`O=C(CC(F)(F)F)N1CCN(Cc2ccnc(Nc3nc4ccc(-c5cnn(CC6CC6)c5)cc4[nH]3)c2)CC1`: the half-maximal inhibitory concentration (IC50) in data set [1] is 7 nM; in the data set on SK-MEL-2, 221 nM; with ACHN, 7900 nM; on CDK9/cyclin T1, 9190 nM; in data set [2] it was 9 nM; in data set [3], 4120 nM. Also, the Papp A→B at 2 h, 2 µM in data set [4] amounted to 3.2 ×10⁻⁶ cm/s. Besides, the Papp B→A at 2 h, 2 µM in data set [5] amounted to 12.5 ×10⁻⁶ cm/s.

In the case of `C[C@H](c1ccnc(Nc2nc3ccc(-c4cc(OCC5CC5)ncn4)cc3[nH]2)c1)N1CCN(C(=O)CC(F)(F)F)CC1`, the IC50 amounted to 4 nM in data set [1]; 470 nM in the data set on SK-MEL-2; 3870 nM with ACHN; 16100 nM on CDK9/cyclin T1; 13 nM in data set [2]; 1260 nM in data set [3].

For `C[C@H](c1ccnc(Nc2nc3ccc(-c4cnn(CC5CC5)c4)cc3[nH]2)c1)N1CCN(C(=O)CC(F)(F)F)CC1`, the IC50 was 6 nM in data set [1]; 408 nM with SK-MEL-2; 5270 nM with ACHN; more than 20000 nM at CDK9/cyclin T1; 18 nM in data set [2]; 3220 nM in data set [3]. For the same compound, the Papp A→B at 2 h, 2 µM in data set [4] came out at 1.6 ×10⁻⁶ cm/s. Moreover, the Papp B→A at 2 h, 2 µM in data set [5] stood at 11.8 ×10⁻⁶ cm/s.

As for `CN(C)c1cc(-c2ccc3nc(Nc4cc(CN5CCN(C(=O)CC(F)(F)F)CC5)ccn4)[nH]c3c2)ncn1`, the IC50 in data set [1] was 10 nM; in the data set with SK-MEL-2 it was 246 nM; in the data set with ACHN it was 9690 nM; at CDK9/cyclin T1, 14400 nM; in data set [2], 114 nM; in data set [3], 528 nM.

As to `Cc1noc(-c2ccc3nc(Nc4cc(CN5CCN(C(=O)CC(F)(F)F)CC5)ccn4)[nH]c3c2)n1`, the IC50 was found to be 168 nM in data set [1]; 2180 nM in the data set on SK-MEL-2; 9670 nM in the data set with ACHN; 455 nM at CDK9/cyclin T1; 37 nM in data set [2]; 8910 nM in data set [3]. The Papp A→B at 2 h, 2 µM in data set [4] worked out at 4.2 ×10⁻⁶ cm/s. Also, the Papp B→A at 2 h, 2 µM in data set [5] was 14.2 ×10⁻⁶ cm/s.

For `CNc1cc(-c2ccc3nc(Nc4cc(CN5CCN(C(=O)CC(F)(F)F)CC5)ccn4)[nH]c3c2)ncn1`, the IC50 in data set [1] is 10 nM; in the data set with SK-MEL-2, 245 nM; with ACHN, 29800 nM; in data set [2], 6 nM; in data set [3], 177 nM.

`C[C@H](c1ccnc(Nc2nc3ccc(-c4cnn(CC5CCC5)c4)cc3[nH]2)c1)N1CCN(C(=O)CC(F)(F)F)CC1`: the IC50 is 4 nM in data set [1]; 3710 nM with SK-MEL-2; 5420 nM in the data set with ACHN; more than 20000 nM at CDK9/cyclin T1; 357 nM in data set [2]; 325 nM in data set [3].

On to `Cc1cc(-c2ccc3nc(Nc4cc([C@@H](C)N5CCN(C(=O)CC(F)(F)F)CC5)ccn4)[nH]c3c2)ncn1`, for which the IC50 in data set [1] was found to be 4 nM; in the data set with SK-MEL-2, 476 nM; in the data set with ACHN it was 2010 nM; at CDK9/cyclin T1, 2130 nM; in data set [2], 10 nM; in data set [3], 170 nM.

Regarding `Cc1noc(-c2ccc3nc(Nc4cc([C@@H](C)N5CCN(C(=O)CC(F)(F)F)CC5)ccn4)[nH]c3c2)n1`, the IC50 in data set [1] amounted to 37 nM; with SK-MEL-2, 3530 nM; in the data set with ACHN it was 8980 nM; on CDK9/cyclin T1, 1520 nM; in data set [2], 30 nM; in data set [3] it was 2360 nM. The Papp A→B at 2 h, 2 µM in data set [4] came out at 10.8 ×10⁻⁶ cm/s. Moreover, in data set [5], the Papp B→A at 2 h, 2 µM worked out at 8.6 ×10⁻⁶ cm/s.
